In patent US20040197852A1, “Method of preparing peptide fragment having cell death inhibitory activity” (priority 2001, published 2004):

B1: Selenoprotein P untreated: full-length selenoprotein P purified from human plasma in Example 1, M.W. around 67,000 in SDS-PAGE (protein, UniProt P49908 20-381, looked up)
Selenoprotein P: ESQDQSSLCKQPPAWSIRDQDPMLNSNGSVTVVALLQASUYLCILQASKLEDLRVKLKKEGYSNISYIVVNHQGISSRLKYTHLKNKVSEHIPVYQQEENQTDVWTLLNGSKDDFLIYDRCGRLVYHLGLPFSFLTFPYVEEAIKIAYCEKKCGNCSLTTLKDEDFCKRVSLATVDKTVETPSPHYHHEHHHNHGHQHLGSSELSENQQPGAPNAPTHPAPPGLHHHHKHKGQHRQGHPENRDMPASEDLQDLQKKLCRKRCINQLLCKLPTDSELAPRSUCCHCRHLIFEKTGSAITUQCKENLPSLCSUQGLRAEENITESCQURLPPAAUQISQQLIPTEASASURUKNQAKKUEUPSN

Tested on: Dami cells
Assay: Cell death-inhibitory activity in Dami cells in serum-free medium with BSA and linoleic acid
Format: cell-based, human
From the text: For screening a cell death-inhibitory activity for isolation and identification of the C-terminal fragment of selenoprotein P as described above, a culture system of Dami cells, human megakaryoblasts, with serum free culture medium supplemented with albumin was suitably used. […] With culture medium containing 0.01 to 0.5% human serum albumin, the cells grow normally but on Day 4 and henceforth all the cells are put to death abruptly. A cell death-inhibitory activity in a sample may be measured by applying the sample to this culture system.
The cells were cultured for three days and recovered for assay. The recovered cells were washed twice with SA/0.05% skimmed BSA (manufactured by SIGMA) containing 4 μM linoleic acid and suspended in the same medium at 3×10^4 cells/mL. The cell suspension was then added to a 96-well plate in each 200 μl for wells for sample addition or in each 100 μl for wells for serial dilution. To the wells for sample addition was added 2 μl sample and, after stirring, a serial dilution was made with the wells containing 100 μl cell suspension. The plate was incubated at 37° C. in CO2 incubator for 4 to 5 days followed by assessment. In this system, Dami cells will die in the wells added with samples having no activity but will survive in the wells added with samples having the activity on Day 4 and thenceforth. Thus, assessment was made with to what folds of dilution of tested samples the living cells could survive. Therefore, the higher the value in the following table, the higher a cell death-inhibitory activity.
After washing the column with about 8 mL PBS, elution was made with 0.1 M glycine, pH 2.8. The eluate fractions were neutralized with about 1/10 amount of 1 M Tris-HCl. The fraction that passed through chromatographic column and the washing fractions were pooled, concentrated with SpeedVac, and dialyzed against PBS.

[1] = selenoprotein P digested with 1/10 weight of enzyme, 37° C., 24 hours, 2 μl sample serially diluted, Dami cell survival at 4 to 5 days

Row | Molecule | Cell death-inhibitory activity (Folds of dilution) [1] | Cell death-inhibitory activity (Folds of dilution) (each 1 ppm selenium added to the system, Dami cells)
1 | Trypsin | 600 Folds of dilution | 
2 | Elastase | 600 Folds of dilution | 
3 | Thrombin | 600 Folds of dilution | 
4 | Plasmin | 600 Folds of dilution | 
5 | Activated protein C | 800 Folds of dilution | 
6 | B1 | 400 Folds of dilution | 5000 Folds of dilution
